Laboratory results from patent publication US10696731B2, “Oligopeptide-free cell culture media” (Baxalta GmbH, priority 2006, dated 2020).

Experiments:
GD8/6 cells [1] = test: Small scale spinner flask culture of GD8/6 cells in BAV-medium: FVIII productivity and growth rate; conditions: added to BAV-medium, range 0-18 mg/L; spinner flasks 200 ml
Method: Cell counts from suspension cells or immobilized cells were determined either by counting with a CASY® cell counter as described by Scharfe et al., Biotechnologie in LaborPraxis 10: 1096-1103 (1988), or by citric acid extraction and fluorescent staining of the nuclei followed by counting with a NucleoCounter® (Chemometec, DK). The specific growth rate (p) is calculated from the increase of the cell densities(Xt) and/or the dilution rate (D) of the steady state of chemostat cultures of suspensions cells over a certain time interval (t): μ=D+ln(Xt/XO)/t
The activity of Factor VIII (FVIII) (cf. FIGS. 1 to 5) was measured by a chromogenic assay (Chromogenic, Sweden).
The cell specific productivity (qp) is defined as the specific amount of produced protein (U or μg) per number of cells per day.
Small scale experiments with GD8/6 cells in suspension culture were carried out in Techne spinner flasks at 200 ml working volume in batch refeed mode at 37° C., without pH and pO2 control.

GD8/6 cells [2] = test: FVIII expression and growth of GD8/6 cells in 10 L chemostat culture with BAV-medium; type: cell-based
Method: The volumetric productivity (QP) is calculated from the amount of activity units yielded per liter reactor volume per day (U/L/d) in the production system.
Cell cultures of recombinant mammalian cells (e.g., CHO-cells stably expressing Factor VIII, such as GD8/6 cells) were grown in suspension in a chemostat culture in 10 l bioreactors. The culture conditions of 37° C., oxygen saturation 20%, and pH 7.0 to 7.1 were kept constant. The cultures were supplied with a constant feed of BAV-medium.

[3] = 2 mg/L plus additional supplementation with Fe (II) and Cu (II)

SMILES: NCCC[C@H](N)C(=O)O [Ornithine]
- ability to substitute putrescine (FVIII productivity and growth) (GD8/6 cells [1]): could partially substitute putrescine in a concentration-dependent manner

SMILES: NCCCCN [Putrescine.2HCl]
- volumetric productivity (GD8/6 cells [2]; 2 mg/L plus Fe (II) and Cu (II), after a further increase of the cell density): over 3000 U/L/D
- cell specific productivity (GD8/6 cells [2]; [3]): over 1700 mU/10E06 cells/day
- specific growth rate (GD8/6 cells [2]; [3]): approximately 0.60 d^−1
- volumetric productivity (GD8/6 cells [2]; [3]): over 2685 U/L/D
- increase of volumetric FVIII-expression (GD8/6 cells [2]; addition of 2 mg/L after 11 days of continuous feed of BAV-medium, 10 L bioreactor): 800%
- FVIII expression (volumetric productivity) (GD8/6 cells [2]; addition of 2 mg/L, BAV-medium without it averaged 271 U/L/D): 870 U/L/D

SMILES: NCCO [ethanolamine, reference compound]
- ability to substitute putrescine (FVIII productivity and growth) (GD8/6 cells [1]): could neither replace putrescine in any concentration investigated

SMILES: NCCCNCCCCNCCCN [spermine]
- ability to substitute putrescine (FVIII productivity and growth) (GD8/6 cells [1]): could also substitute putrescine in a concentration-dependent manner
